According to US20210400971A1, “SAFENING COMPOSITIONS COMPRISING A PHENOXY HERBICIDE AND CLOQUINTOCET FOR CEREAL CROPS AND METHODS THEREOF” (DOW AGROSCIENCES LLC, priority 2018, published 2021):
Read-outs that look alike come from different tables or passages of the source.

Tests used:
wheat = conditions: cited from earlier work
[1] = test system: durum wheat (Triticum durum; TRZDU); test: 2016 field trial, Alberta: weed-free tolerance trial, visual phytotoxicity (head deformity) on durum wheat
Protocol: (§1) One field trial was conducted in Alberta, Canada in 2016 to evaluate whether wheat injury caused by 2,4-D could be reduced by tank-mixing with a herbicide that is preformulated with cloquintocet acid. 2,4-D was applied as either an ester (660 gae/L 2,4-D EHE) or choline salt (456 gae/L 2,4-D choline) at a rate of 700 gae/ha. […] Some treatments were applied with Intake adjuvant at 1% v/v. Intake is a blend of a non-ionic surfactant and a paraffinic oil and is used to improve the spreading and wetting of herbicides. Herbicide treatments were made to spring wheat (Triticum aestivum) and durum wheat (Triticum durum) at the B12-B13 stage. Head deformity was evaluated at 42, 55 and 71 days after treatment (DAT).
(§2) This trial was established a weed-free tolerance trial. All herbicide treatments were applied post-emergence in the spring (e.g., Jun. 2, 2016). Herbicides were applied with a tractor-mounted sprayer using CO2 as a propellant. The sprayer delivered a uniform spray pattern that provided thorough coverage of the foliage using a 100 L/ha spray volume. Applications were made to spring wheat and durum wheat at the 2-3 leaf stage. Phytotoxicity to wheat was visually assessed as percent overall injury, compared to an untreated control plot. The overall injury assessments were based on visual ratings of growth inhibition, leaf deformity, epinasty, chlorosis, and delay in maturity. The primary injury observed with 2,4-D was head deformity, and therefore those are the only evaluations summarized below. The trial was designed as a randomized complete block with four replicates. Referring now to Table 1, 2,4-D ester (e.g., 2,4-D EHE) and 2,4-D choline at a rate of 700 gae/ha caused head deformity to spring wheat peaking at 8% and to durum wheat peaking at 4%. […] The results provide that cloquintocet (or herbicides containing cloquintocet) could be mixed with 2,4-D ester or choline to reduce head deformity in spring wheat caused by early applications of 2,4-D.

[2] = test system: spring wheat (Triticum aestivum; TRZAS); test: 2016 field trial, Alberta: weed-free tolerance trial, visual phytotoxicity (head deformity) on spring wheat
Protocol: as §1, §2

[3] = test system: spring wheat (Triticum aestivum; TRZAS); conditions: in vivo
Protocol: (§3) Two weed-free tolerance field trials were conducted in Alberta and Manitoba, Canada in 2017 to evaluate whether wheat injury caused by 2,4-D ester could be reduced by tank-mixing with cloquintocet-containing products. […] The rate of cloquintocet parent acid delivered by the tank-mix partners ranged from 3.5 to 63.7 gae/ha. All herbicide treatments were applied post-emergence in the spring (Jun. 16, 2017 to Jun. 26, 2017). Herbicides were applied with tractor- or bicycle-mounted sprayers using CO2 as a propellant. The sprayer delivered a uniform spray pattern that provided thorough coverage of the foliage using a 100 L/ha spray volume. Applications were made to spring wheat (Triticum aestivum) and durum wheat (Triticum durum) at the three-leaf stage. Phytotoxicity to wheat was visually assessed as percent overall injury, compared to an untreated control plot. The overall injury assessments were based on visual ratings of growth inhibition, leaf deformity, epinasty, chlorosis, and delay in maturity. […] Head deformity was evaluated at 10 to 12 weeks after treatment (WAT). The trial was designed as a randomized complete block with four replicates.

[4] = test system: durum wheat (Triticum durum; TRZDU); conditions: in vivo
Protocol: as §3

[5] = test system: durum wheat (Triticum durum; TRZDU); test: 2018 field trials, Alberta, Saskatchewan and Manitoba: growth inhibition, head deformity and yield loss on durum wheat; assay type: in vivo; conditions: herbicide 700 gae/ha; for % Growth Inhibition (66 DAT) TRZDU / % Head Deformity (66 DAT) TRZDU / % Yield Loss (77 DAT) TRZDU: Field Trial 1; for % Yield Loss (77 DAT) TRZDU: relative to commercial standard REXADE A at 20 gae/ha; for % Growth Inhibition (7 DAT) TRZDU: Field Trial 2; for % Growth Inhibition (14 DAT) TRZDU: Field Trial 3
Protocol: (§4) Growth inhibition was evaluated at 7, 14, and 66 days after treatment (DAT), head deformity was evaluated at 66 days after treatment (DAT), and yield was taken at 77 days after treatment (DAT). All treatments are illustrated in Table 3.
Weed-free tolerance trials were established.

[6] = test system: spring wheat (Triticum aestivum; TRZAS); test: 2018 field trials, Alberta, Saskatchewan and Manitoba: growth inhibition, head deformity and yield loss on spring wheat; assay type: in vivo; conditions: for % Growth Inhibition (66 DAT) TRZAS / % Head Deformity (66 DAT) TRZAS / % Yield Loss (77 DAT) TRZAS: Field Trial 1; for % Growth Inhibition (66 DAT) TRZAS / % Head Deformity (66 DAT) TRZAS / % Yield Loss (77 DAT) TRZAS / % Growth Inhibition (7 DAT) TRZAS / % Growth Inhibition (14 DAT) TRZAS: herbicide 700 gae/ha; for % Yield Loss (77 DAT) TRZAS: relative to commercial standard REXADE A at 20 gae/ha; for % Growth Inhibition (7 DAT) TRZAS: Field Trial 2; for % Growth Inhibition (14 DAT) TRZAS: Field Trial 3
Protocol: as §4
Weed-free tolerance trials were established. […] The primary injury observed with 2,4-D was growth inhibition, head deformity, and yield loss, therefore those are the only evaluations summarized below.

[7] = 42 DAT, herbicide 700 gae/ha, safener 0, Intake @1% v/v
[8] = 55 DAT, herbicide 700 gae/ha, safener 0, Intake @1% v/v
[9] = 71 DAT, herbicide 700 gae/ha, safener 0, Intake @1% v/v

## 2,4-D amine
wheat; applied at Stage 13
  wheat yield reduction: 35%
wheat; applied at Stage 44
  wheat yield reduction: 15%

## O=C(O)COc1ccc(Cl)cc1Cl [2,4-D Choline, 2-hydroxy-N,N,N-trimethylethanaminium 2-(2,4-dichlorophenoxy)acetate]
[1]; [7]
  % TRZDU Head Deformity: 0.0%
[1]; [8]
  % TRZDU Head Deformity: 3.5%
[1]; [9]
  % TRZDU Head Deformity: 0.8%
[2]; [7]
  % TRZAS Head Deformity: 5.8%
[2]; [8]
  % TRZAS Head Deformity: 5.8%
[2]; [9]
  % TRZAS Head Deformity: 3.0%

## CCCCC(CC)COC(=O)COc1ccc(Cl)cc1Cl (stereo not drawn) [2,4-D Ester, 2-ethylhexyl 2-(2,4-dichlorophenoxy)acetate]
[3]
  head deformity to spring wheat, peak: ≤ 10%
[4]
  head deformity to durum wheat, peak: ≤ 4%
[4]; 12 weeks
  % TRZDU Head Deformity: 0.0%
[1]; Triticum durum (durum wheat), in vivo
  head deformity to durum wheat, peak: ≤ 4%
[1]; Triticum durum (durum wheat), in vivo, 42 days
  % TRZDU Head Deformity: 0.0%
[1]; Triticum durum (durum wheat), in vivo, 55 days
  % TRZDU Head Deformity: 4.3%
[1]; Triticum durum (durum wheat), in vivo, 71 days
  % TRZDU Head Deformity: 3.0%
[5]; safener 0, Agral 90 @ […]
  % Growth Inhibition (66 DAT) TRZDU: 1.9%
  % Head Deformity (66 DAT) TRZDU: 5.3%
  % Yield Loss (77 DAT) TRZDU: 8.8%
  % Growth Inhibition (7 DAT) TRZDU: 8.5%
  % Growth Inhibition (14 DAT) TRZDU: 8.5%
[5]; safener 0, no adjuvant
  % Growth Inhibition (66 DAT) TRZDU: 2.6%
  % Head Deformity (66 DAT) TRZDU: 5%
  % Yield Loss (77 DAT) TRZDU: 6.1%
  % Growth Inhibition (7 DAT) TRZDU: 5.5%
  % Growth Inhibition (14 DAT) TRZDU: 7%
[6]; 2018 trials, applied alone or with Agral 90, spring and durum wheat
  injury: caused growth inhibition, head deformity and yield loss
[6]; safener 0, Agral 90 @ […]
  % Growth Inhibition (66 DAT) TRZAS: 9.1%
  % Head Deformity (66 DAT) TRZAS: 40%
  % Yield Loss (77 DAT) TRZAS: 3.3%
  % Growth Inhibition (7 DAT) TRZAS: 8%
  % Growth Inhibition (14 DAT) TRZAS: 7.5%
[6]; safener 0, no adjuvant
  % Growth Inhibition (66 DAT) TRZAS: 10.1%
  % Head Deformity (66 DAT) TRZAS: 40%
  % Yield Loss (77 DAT) TRZAS: 4.5%
  % Growth Inhibition (7 DAT) TRZAS: 4.5%
  % Growth Inhibition (14 DAT) TRZAS: 7%
wheat; applied at Stage 13
  wheat yield reduction: 39%
wheat; applied at Stage 44
  wheat yield reduction: 16%
[2]; Triticum aestivum (spring wheat), in vivo
  head deformity to spring wheat, peak: ≤ 8%
[2]; Triticum aestivum (spring wheat), in vivo, 42 days
  % TRZAS Head Deformity: 6.5%
[2]; Triticum aestivum (spring wheat), in vivo, 55 days
  % TRZAS Head Deformity: 7.5%
[2]; Triticum aestivum (spring wheat), in vivo, 71 days
  % TRZAS Head Deformity: 7.8%
